Source: patent US8153626B2, “Substituted diazepine sulfonamides as bombesin receptor subtype-3 modulators” (Merck Sharp & Dohme Corp., priority 2006, dated 2012)
Where two headings read alike, the source gives them in different places.

What was measured:
human BRS3 [1] = biological target: T1, human BRS3 (Homo sapiens, UniProt P32247); assay: Aequorin bioluminescent assay to measure intracellular Ca++ (HEK293AEQ cells); assay type: cell-based; settings: read-out: human BRS-3 EC50
T1 construct: expressed in transfected cells
T1 sequence (P32247 1-399): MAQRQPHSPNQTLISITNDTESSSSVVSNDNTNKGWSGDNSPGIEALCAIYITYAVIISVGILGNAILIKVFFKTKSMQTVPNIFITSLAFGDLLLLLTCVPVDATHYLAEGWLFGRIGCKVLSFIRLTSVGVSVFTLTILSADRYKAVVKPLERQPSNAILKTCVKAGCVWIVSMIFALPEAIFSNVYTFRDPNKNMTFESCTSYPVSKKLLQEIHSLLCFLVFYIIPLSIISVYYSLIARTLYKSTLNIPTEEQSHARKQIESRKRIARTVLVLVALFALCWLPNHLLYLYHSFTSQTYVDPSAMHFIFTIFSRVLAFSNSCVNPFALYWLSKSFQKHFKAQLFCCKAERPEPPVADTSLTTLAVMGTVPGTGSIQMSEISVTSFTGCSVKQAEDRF
Protocol: HEK293/AEQ cell lines stably expressing either human, rat or mouse BRS3 cDNA were generated using standard cell biology techniques and were used for all functional assays and to prepare membranes for the rat BRS3 binding assay. […] The transfected cells were used to prepare membranes for the [^3H]-biphenyl binding assay and for the functional assays. The cells were maintained in culture under the same conditions used for the human and rat stable BRS3 HEK293AEQ cell lines. All cells were grown as attached monolayers to approximately 90% confluency in tissue culture flasks under the appropriate media in an incubator at 37° C. with 5% CO2. Cells were passed 1:3 to 1:5 twice a week depending on the rate of growth.
The same media (8 mL) containing 20 μM coelenterzine was added to the cells and incubated at 37° C. for 1 hr. The media was aspirated and the flasks rinsed with 6 mL ECB buffer (140 mM NaCl, 20 mM KCl, 20 mM HEPES, 5 mM glucose, 1 mM MgCl, 1 mM CaCl, 0.1 mg/mL BSA, pH 7.4). The cells were dissociated with a rubber-tipped scraper in 6 mL of fresh ECB buffer and collected by centrifugation at 2500 rpm for 5 minutes. The cell pellets were resuspended in ECB buffer to a concentration of 200,000 cells/mL and were either used right away or quickly frozen in liquid nitrogen for storage at −80° C. for up to six weeks.
The Aequorin assay itself was performed in 96-well format using a Wallac Microbeta luminometer equipped with microinjector module. Compounds in DMSO (0.5% final concentration) were titrated in the plates at 2× concentration in a volume of 0.1 mL ECB buffer. The cells (20,000 per well) were then injected in 0.1 mL ECB buffer and the bioluminescence monitored for 30 seconds. Alternatively, total bioluminescence was determined over 10 minutes. The bioluminescent readings were plotted vs. the log molar concentration of receptor ligand (compound). The EC50 for activation was reported as the inflection point of the resulting sigmoidal curve.

human BRS3 [2] = biological target: T1, human BRS3; assay: [125I]-dY-peptide radioligand binding assay (filtration, membranes)
Protocol: Dissociated cells were collected by centrifuging at 1000 rpm for 10 minutes. Cell pellets were resuspended and homogenized at 4° C. using a Polytron homogenizer (setting 40, 20 stokes) in approximately 10 mL membrane preparation buffer (10 mM Tris pH 7.4, 0.01 mM Pefabloc, 10 μM phosphoramidon and 40 μg/mL Bacitracin) per T175 flask. After centrifugation at 2200 rpm (1000×g) for 10 minutes at 4° C., the supernatant was transferred to a clean centrifuge tube and spun at 18,000 rpm (38,742×g) for 15 minutes. at 4° C.
The filters were washed five times with ice-cold washing buffer (1×PBS without Mg^++ and Ca^++). The radioactivity was determined by adding 30 μl of microscintillant/well after each plate was dried at room temperature overnight or placed at 50° C. for 1 hr.
A Packard Top Count was used to read the filter plates. The data in % inhibition of binding was plotted vs. the log molar concentration of receptor ligand (compound). The IC50 was reported as the inflection point of the resulting sigmoidal curve. […] The binding assays for the rat and mouse Bombesin Receptor Subtype 3 (BRS3) were performed in a similar fashion.

[3] = Bombesin Subtype-3 Receptor agonism, method C, racemic mixture or the more potent enantiomer after HPLC separation
[4] = Bombesin Subtype-3 Receptor Binding, method A, racemic mixture or the more potent enantiomer after HPLC separation, read-out: human BRS-3 IC50

Row | Compound | EC50 (human BRS3 [1]; [3]) [nM] | IC50 (human BRS3 [2]; [4]) [nM] | EC50 (human BRS3 [1]) [nM] | IC50 (human BRS3 [2]; read-out: human BRS-3 IC50) [nM] | IC50 (human BRS3 [2]) [nM]
1 | CC(C)(O)c1nc(C2(c3cccc4c3N(S(=O)(=O)c3ccc(OC(F)(F)F)cc3)Cc3ccc(C(F)(F)F)nc3N4)CCC2)no1 [Example 531, 2-(3-{1-[6-{[4-(Trifluoromethoxy)phenyl]sulfonyl}-2-(trifluoromethyl)-6,11-dihydro-5H-pyrido[2,3-b][1,5]benzodiazepin-7-yl]cyclobutyl}-1,2,4-oxadiazol-5-yl)propan-2-ol] |  |  | 94 | 0.65 | 
2 | CC(C)(C)c1ccc(S(=O)(=O)N2Cc3ccc(C(F)(F)F)nc3Nc3ccc(-c4noc(CO)n4)cc32)cc1 [Example 437, {3-[6-[(4-tert-Butylphenyl)sulfonyl]-2-(trifluoromethyl)-6,11-dihydro-5H-pyrido[2,3-b][1,5]benzodiazepin-8-yl]-1,2,4-oxadiazol-5-yl}methanol] | 121 | 4.1 |  |  | 
3 | Cc1ccc2c(n1)N(S(=O)(=O)c1ccc(C(C)(C)C)cc1)Cc1ccc(C(F)(F)F)nc1N2 [Example 536] | 66 | 5.3 |  |  | 
4 | CC(C)(C)c1ccc(S(=O)(=O)N2Cc3ccc(C(F)(F)F)nc3Nc3cccc(-c4noc(CO)n4)c32)cc1 (racemic) [Example 5, {3-[6-[(4-tert-Butylphenyl)sulfonyl]-2-(trifluoromethyl)-6,11-dihydro-5H-pyrido[2,3-b]-[1,5]benzodiazepin-7-yl]-1,2,4-oxadiazol-5-yl}methanol] | 34 | 0.75 |  |  | 
5 | Cc1ccc2c(c1C)N(S(=O)(=O)c1ccc(C(C)(C)C)cc1)Cc1ccc(C(F)(F)F)nc1N2 (racemic) [Example 251, 6-[(4-tert-Butylphenyl)sulfonyl]-7,8-dimethyl-2-(trifluoromethyl)-6,11-dihydro-5H-pyrido[2,3-b][1,5]benzodiazepine] | 100 |  |  |  | 1
6 | CC(C)(C)c1ccc(S(=O)(=O)N2Cc3ccc(C(F)(F)F)nc3Nc3ccncc32)cc1 [Example 464, 6-[(4-tert-Butylphenyl)sulfonyl]-2-(trifluoromethyl)-6,11-dihydro-5H-dipyrido[2,3-e:3′,4′-b][1,4]diazepine] | 196 | 38 |  |  | 
7 | CC(C)(C(N)=O)c1cccc2c1N(S(=O)(=O)c1ccc(OC(F)(F)F)cc1)Cc1ccc(C(F)(F)F)nc1N2 [Example 533, 2-Methyl-2-[6-{[4-(trifluoromethoxy)phenyl]sulfonyl}-2-(trifluoromethyl)-6,11-dihydro-5H-pyrido[2,3-b][1,5]-benzodiazepin-7-yl]propanamide] | 16 | 2.2 |  |  | 
8 | CC(C)(C)c1ccc(S(=O)(=O)N2Cc3ccc(C(F)(F)F)nc3Nc3ccc4ncccc4c32)cc1 [Example 316, 13-[(4-tert-Butylphenyl)sulfonyl]-9-(trifluoromethyl)-12,13-dihydro-7H-pyrido[2′,3′:5,6][1,4]diazepino[2,3-ƒ]quinoline] | 48 |  |  |  | 0.64
9 | CC(C)(C)c1ccc(S(=O)(=O)N2Cc3ccc(C(F)(F)F)nc3Nc3ccc(C(C)(C)C(=O)O)cc32)cc1 [Example 374, 2-[6-[(4-tert-Butylphenyl)sulfonyl]-2-(trifluoromethyl)-6,11-dihydro-5H-pyrido[2,3-b][1,5]benzodiazepin-8-yl]-2-methylpropanoic acid] | 130 | 4.9 |  |  | 
10 | O=S(=O)(c1ccc(OC(F)(F)F)cc1)N1Cc2ccc(C(F)(F)F)nc2Nc2cccc(-c3noc(CO)n3)c21 (racemic) [Example 7, {3-[6-{[4-(Trifluoromethoxy)phenyl]sulfonyl}-2-(trifluoromethyl)-6,11-dihydro-5H-pyrido[2,3-b]-[1,5]benzodiazepin-7-yl]-1,2,4-oxadiazol-5-yl}methanol] | 33 | 2.9 |  |  | 

The next lines start with the values.

Row | EC50 (human BRS3 [1]; [3]) [nM] | IC50 (human BRS3 [2]; [4]) [nM] | EC50 (human BRS3 [1]) [nM] | IC50 (human BRS3 [2]; read-out: human BRS-3 IC50) [nM] | IC50 (human BRS3 [2]) [nM] | Compound
11 | 63 | 1.9 |  |  |  | CC(C)(C)c1ccc(S(=O)(=O)N2Cc3ccc(C(F)(F)F)nc3Nc3cccc(-c4noc(C(C)(C)O)n4)c32)cc1 (racemic) [Example 3, 2-{3-[6-[(4-tert-Butylphenyl)sulfonyl]-2-(trifluoromethyl)-6,11-dihydro-5H-pyrido[2,3-b][1,5]benzodiazepin-7-yl]-1,2,4-oxadiazol-5-yl}propan-2-ol]
12 | 73 |  |  |  | 3.6 | CC(C)(O)c1nc(-c2cccc3c2N(S(=O)(=O)c2ccc(OC(F)(F)F)cc2)Cc2ccc(C(F)(F)F)nc2N3)no1 (racemic) [Example 1, 2-{3-[6-{[4-(Trifluoromethoxy)phenyl]sulfonyl}-2-(trifluoromethyl)-6,11-dihydro-5H-pyrido[2,3-b][1,5]benzodiazepin-7-yl]-1,2,4-oxadiazol-5-yl}propan-2-ol]
13 | 139 | 3.3 |  |  |  | CC(C)(O)c1nc(-c2cccc3c2N(S(=O)(=O)c2ccc(C4(C(F)(F)F)CC4)cc2)Cc2ccc(C(F)(F)F)nc2N3)no1 (racemic) [Example 4, 2-{3-[2-(Trifluoromethyl)-6-({4-[1-(trifluoromethyl)cyclopropyl]phenyl}sulfonyl)-6,11-dihydro-5H-pyrido[2,3-b][1,5]benzodiazepin-7-yl]-1,2,4-oxadiazol-5-yl}-2-propanol]
14 | 158 | 8.3 |  |  |  | CC(C)(O)c1nc(-c2cccc3c2N(S(=O)(=O)c2ccc(C(F)(F)F)cc2)Cc2ccc(C(F)(F)F)nc2N3)no1 (racemic) [Example 2, 2-[3-(2-(Trifluoromethyl)-6-{[4-(trifluoromethyl)phenyl]sulfonyl}-6,11-dihydro-5H-pyrido[2,3-b][1,5]benzodiazepin-7-yl)-1,2,4-oxadiazol-5-yl]propan-2-ol]
15 | 52 | 6.4 |  |  |  | O=S(=O)(c1ccc(C(F)(F)F)cc1)N1Cc2ccc(C(F)(F)F)nc2Nc2cccc(-c3noc(CO)n3)c21 (racemic) [Example 6, [3-(2-(Trifluoromethyl)-6-{[4-(trifluoromethyl)phenyl]sulfonyl}-6,11-dihydro-5H-pyrido[2,3-b]-[1,5]benzodiazepin-7-yl)-1,2,4-oxadiazol-5-yl]methanol]
